Results on 12 molecules are retold here after ChEMBL document CHEMBL2202954, “The effect of PLC-γ2 inhibitors on the growth of human tumour cells” (2012).

Common to all, as to format: functional
The subject of one assay is NCI-H226. The assay can be described thus: Cytotoxicity against human NCI-H226 cells assessed as cellular growth at 10 uM by SRB assay. (In general: Sulforhodamine B stains cellular protein and so reports cell mass.)
In the next assay the test system is SR. Put plainly: Cytotoxicity against human SR cells assessed as cellular growth at 10 uM by SRB assay.
The test system of another assay is SK-MEL-28. The assay can be described thus: Cytotoxicity against human SK-MEL-28 cells assessed as cellular growth at 10 uM by SRB assay.
The subject of another assay is A498. The assay can be described thus: Cytotoxicity against human A498 cells assessed as cellular growth at 10 uM by SRB assay.
For another assay, the system named is Malme-3M. Put plainly: Cytotoxicity against human MALME-3M cells assessed as cellular growth at 10 uM by SRB assay.
Another assay deals with T47D. Put plainly: Cytotoxicity against human T47D cells assessed as cellular growth at 10 uM by SRB assay.
The subject of the next assay is HCT-116. Put plainly: Cytotoxicity against human HCT116 cells assessed as cellular growth at 10 uM by SRB assay.
Another assay deals with HCT-15. The assay can be described thus: Cytotoxicity against human HCT15 cells assessed as cellular growth at 10 uM by SRB assay.
The test system of another assay is EKVX. Put plainly: Cytotoxicity against human EKVX cells assessed as cellular growth at 10 uM by SRB assay.
Another assay has as its system NCI-H322M. The assay can be described thus: Cytotoxicity against human NCI-H322M cells assessed as cellular growth at 10 uM by SRB assay.
Another assay relates to SK-OV-3. Put plainly: Cytotoxicity against human SKOV3 cells assessed as cellular growth at 10 uM by SRB assay.
The subject of a further assay is SK-MEL-5. The assay can be described thus: Cytotoxicity against human SK-MEL-5 cells assessed as cellular growth at 10 uM by SRB assay.
Another assay relates to IGROV-1. The assay can be described thus: Cytotoxicity against human IGROV1 cells assessed as cellular growth at 10 uM by SRB assay.
Another assay relates to UO-31. Put plainly: Cytotoxicity against human UO31 cells assessed as cellular growth at 10 uM by SRB assay.
A further assay has as its system COLO 205. Put plainly: Cytotoxicity against human COLO205 cells assessed as cellular growth at 10 uM by SRB assay.
The next assay has as its system SNB-75. The assay can be described thus: Cytotoxicity against human SNB75 cells assessed as cellular growth at 10 uM by SRB assay.
A further assay has as its system OVCAR-5. The assay can be described thus: Cytotoxicity against human OVCAR5 cells assessed as cellular growth at 10 uM by SRB assay.
The next assay deals with LOX IMVI. Put plainly: Cytotoxicity against human LOXIMVI cells assessed as cellular growth at 10 uM by SRB assay.

With `Cc1cc(C)c(NC(=O)c2sc3nc4c(cc3c2N)C(=O)CC(C)(C)C4)c(C)c1`, the Activity amounted to 92.57% with NCI-H226; 103.93% with SR; 107.04% in the assay on SK-MEL-28; 89.84% in the assay on A498; 92.73% in the assay with Malme-3M; 88.69% in the assay on T47D. In addition, the Activity in the assay on HCT-116 was 99.79%; in the assay on HCT-15, 96.97%; in the assay with EKVX, 92.06%; in the assay with NCI-H322M, 115.34%; with SK-OV-3, 116.6%; in the assay on SK-MEL-5 it was 89.79%. For the same molecule, the Activity stood at 95.36% with IGROV-1; 99.05% in the assay on UO-31; 117% with COLO 205; 105.78% in the assay on SNB-75; 100.8% in the assay with OVCAR-5.
With `COc1ccc2nc(NC(=O)c3ccc(F)cc3)sc2c1`, the Activity is 92.48% in the assay with NCI-H226; 104.31% in the assay on SR; 110.86% in the assay with SK-MEL-28; 85.54% in the assay on A498; 92.36% in the assay on Malme-3M; 76.48% in the assay on T47D. Further, the Activity with HCT-116 was 95.31%; in the assay with HCT-15, 85.45%; in the assay on EKVX it was 79.56%; with NCI-H322M, 75.75%; in the assay on SK-OV-3 it was 104.34%; in the assay with SK-MEL-5 it was 89.97%. Further, the Activity is 102.03% in the assay on LOX IMVI; 98.94% in the assay with IGROV-1; 99.75% in the assay on UO-31; 115.29% with COLO 205; 109.5% in the assay on SNB-75; 97.79% in the assay on OVCAR-5.
In the case of `O=c1/c(=C/c2ccccc2)sc2nc(-c3ccc(Cl)cc3Cl)nn12`, the Activity in the assay with NCI-H226 is listed as 100.81%; with SK-MEL-28, 109.52%; in the assay with A498 it was 108.54%; in the assay with Malme-3M, 121.75%; in the assay with T47D, 94.32%; with HCT-116, 100.59%. Besides, the Activity in the assay on HCT-15 came out at 112.75%; with EKVX, 110.01%; in the assay with NCI-H322M, 131.46%; in the assay with SK-OV-3, 98.1%; in the assay on SK-MEL-5, 104.93%; in the assay on LOX IMVI, 96.37%. Further, the Activity was determined as 102.56% with IGROV-1, 88.97% in the assay on UO-31, 123.34% with COLO 205 and 80.26% in the assay on SNB-75.
For the molecule `Cc1cccc(-c2nc(-c3cccs3)no2)c1`, the Activity with NCI-H226 is recorded as 94.62%; in the assay on SR, 93.72%; in the assay with SK-MEL-28, 109.6%; in the assay with A498, 82.09%; with Malme-3M, 112.31%; with T47D, 53.59%. The Activity in the assay on HCT-116 came to 96.5%; in the assay with HCT-15, 83.75%; in the assay with EKVX, 84.59%; in the assay on NCI-H322M, 95.9%; in the assay on SK-OV-3, 94.86%; with SK-MEL-5 it was 82.84%. Besides, the Activity in the assay on LOX IMVI is 95.98%; in the assay with IGROV-1, 61.64%; in the assay with UO-31 it was 59.19%; with COLO 205, 111.56%; in the assay with SNB-75, 85.75%.
Consider `Clc1cccc(-c2nc(-c3cccs3)no2)c1`, for which the Activity came out at 97.3% in the assay with NCI-H226; 100.52% in the assay with SR; 111.9% with SK-MEL-28; 107.84% with A498; 111.38% in the assay on Malme-3M; 56.93% with T47D. The Activity with HCT-116 was determined as 97.8%; in the assay on HCT-15, 105.75%; in the assay with EKVX, 85.39%; in the assay with NCI-H322M it was 99.44%; with SK-OV-3, 99.21%; in the assay on SK-MEL-5, 87.95%. The Activity was 94.7% in the assay on LOX IMVI; 77.14% in the assay with IGROV-1; 71.35% in the assay on UO-31; 109.49% with COLO 205; 88.55% with SNB-75.
Take `COc1ccc(Cl)cc1C(=O)Nc1nc2ccc(Cl)cc2s1`: the Activity was 89.17% in the assay with NCI-H226; 87.67% in the assay with SR; 105.02% with SK-MEL-28; 83.31% in the assay with Malme-3M; 47.23% in the assay with T47D; 53.23% in the assay on HCT-116. Also, the Activity in the assay on HCT-15 is listed as 86.52%; in the assay with EKVX, 76.23%; in the assay on NCI-H322M, 85.62%; with SK-OV-3, 91.86%; in the assay with SK-MEL-5 it was 92.79%; in the assay on LOX IMVI, 81.24%. For the same molecule, the Activity was 65.9% with IGROV-1; 58.24% in the assay on UO-31; 82.83% with COLO 205; 74.28% in the assay with SNB-75; 124.2% in the assay on OVCAR-5.
As to `O=C(Nc1nc2ccc(Cl)cc2s1)c1ccc(Cl)cc1Cl`, the Activity stood at 101.52% in the assay on NCI-H226; 98.17% in the assay with SR; 107.5% in the assay on SK-MEL-28; 93.8% in the assay with A498; 109.41% with Malme-3M; 95.96% in the assay on T47D. Besides, the Activity is 105.32% with HCT-116; 100.27% in the assay on HCT-15; 82.69% in the assay with EKVX; 105.38% in the assay on NCI-H322M; 105.26% in the assay on SK-OV-3; 89.76% with SK-MEL-5. For the same molecule, the Activity in the assay with LOX IMVI was determined as 98.46%; in the assay with IGROV-1, 103.26%; in the assay on UO-31 it was 101%; with COLO 205, 114.96%; in the assay on SNB-75, 114.42%; in the assay on OVCAR-5 it was 98.11%.
In the case of `COc1cccc(C(=O)Nc2nc3ccc(Cl)cc3s2)c1`, the Activity with NCI-H226 came out at 93.47%; with SR, 61.65%; in the assay with SK-MEL-28, 101.98%; with A498, 86.56%; in the assay on Malme-3M, 95.69%; with T47D, 79.7%. Besides, the Activity in the assay with HCT-116 amounted to 92.95%; with HCT-15 it was 71.29%; in the assay with EKVX, 81.47%; in the assay on NCI-H322M, 104.25%; with SK-OV-3, 90.86%; with SK-MEL-5 it was 81.61%. The Activity was 94.46% with LOX IMVI; 74.3% in the assay with IGROV-1; 92.38% in the assay with UO-31; 105.5% in the assay on COLO 205; 109.63% with SNB-75; 108.78% in the assay on OVCAR-5.
In the case of `Cc1ccc(S(=O)(=O)Oc2ccc(-c3cnc4ccccc4n3)cc2)cc1`, the Activity stood at 99.19% in the assay with NCI-H226; 93.66% in the assay on SR; 113.2% in the assay on SK-MEL-28; 88.71% with A498; 122.99% in the assay with Malme-3M; 87.98% in the assay on T47D. The Activity in the assay on HCT-116 is given as 106.69%; in the assay on HCT-15, 93.92%; in the assay with EKVX it was 98.5%; with NCI-H322M, 113.67%; with SK-OV-3, 104.03%; with SK-MEL-5, 84.98%. Besides, the Activity is on record as 99.82% in the assay with LOX IMVI; 119.02% in the assay on IGROV-1; 109.58% with UO-31; 135.44% with COLO 205; 117.79% with SNB-75; 102.67% in the assay with OVCAR-5.
As for `Nc1c(C(=O)Nc2ccccc2)sc2nc3c(cc12)C(=O)CCC3`, the Activity in the assay with NCI-H226 is listed as 68%; in the assay on SR it was 21.95%; in the assay with SK-MEL-28 it was 58.69%; in the assay on A498, 37.32%; in the assay on Malme-3M it was 76.23%; in the assay with T47D, 47.06%. In addition, the Activity in the assay on HCT-116 was found to be 23.57%; in the assay on HCT-15, 27.18%; in the assay on EKVX, 84.59%; with NCI-H322M, 67.12%; with SK-OV-3 it was 19.71%; in the assay on SK-MEL-5, 25.74%. Also, the Activity is 51.19% in the assay on LOX IMVI; 36.43% in the assay with IGROV-1; 71.08% with UO-31; -18.41% with COLO 205; 12.41% in the assay with SNB-75; 59.92% in the assay with OVCAR-5.
For the molecule `Cc1cc(C)c(NC(=O)c2sc3nc4c(cc3c2N)C(=O)CCC4)c(C)c1`, the Activity is given as 77.05% with NCI-H226; 10.54% with SR; 55.98% in the assay on SK-MEL-28; -7.37% with A498; 42.11% with Malme-3M; 40.64% with T47D. Also, the Activity with HCT-116 is listed as 23.12%; with HCT-15, 31.78%; in the assay on EKVX, 54.36%; with NCI-H322M, 56.34%; in the assay with SK-OV-3 it was 10.43%; in the assay on SK-MEL-5, 11.34%. In addition, the Activity is listed as 50.61% with LOX IMVI; 35.36% in the assay with IGROV-1; 56.95% in the assay with UO-31; -6.14% in the assay on COLO 205; 0% in the assay with SNB-75.
Turning to `CC1(C)CC(=O)c2cc3c(N)c(C(=O)Nc4ccc(F)cc4)sc3nc2C1`, the Activity in the assay on NCI-H226 came out at 102.68%; with SR, 111.31%; in the assay with SK-MEL-28, 113.65%; in the assay with A498, 87.2%; in the assay on Malme-3M, 116.52%; in the assay on T47D, 111.5%. Besides, the Activity with HCT-116 is 114.92%; in the assay with HCT-15 it was 100.72%; in the assay with EKVX, 100.32%; in the assay with NCI-H322M it was 110.83%; with SK-OV-3, 109.93%; in the assay with SK-MEL-5, 99.04%. Also, the Activity with LOX IMVI is 102.36%; in the assay on IGROV-1, 119.45%; with UO-31, 119.15%; in the assay on COLO 205 it was 133.12%; in the assay with SNB-75, 114.82%; with OVCAR-5, 92.85%.
